Laboratory results taken from US20170050957A1, “4-AMINO-6-(HETEROCYCLIC)PICOLINATES AND 6-AMINO-2-(HETEROCYCLIC)PYRIMIDINE-4-CARBOXYLATES AND THEIR USE AS HERBICIDES” (Dow AgroSciences LLC, priority 2013, published 2017).
Like-named read-outs stand apart in the source and are kept apart here. Each block holds one compound with its values, some of them ahead of it.

Columns and labels:
[1] = system: Key Grass and Sedge Weeds as well as Grass Crops; experiment: Post-emergent Test II herbicidal activity (Table 16); type: in vivo; details: post-emergence, 336 h; for pest or weed control at 35 g/ha: 35 g ai/ha; for pest or weed control at 70 g/ha: 70 g ai/ha; for pest or weed control at 140 g/ha: 140 g ai/ha
How it was run: (§1)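 Plants at first-second true leaf stage, grown 7-21 d in greenhouse (~15 h photoperiod, 23-29 °C day), were track-sprayed at 187 L/ha with compound in acetone/DMSO/water/isopropanol/crop oil/Triton X-155 at a high rate plus 1/2× to 1/16× dilutions. Injury scored visually after 14 d versus untreated plants, 0 (none) to 100% (complete kill).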

[2] = system: Key Broadleaf Weed and Crop Species; experiment: Post-emergent Test II herbicidal activity (Table 15); type: in vivo; details: post-emergence, 336 h, 14 d; for pest or weed control at 35 g/ha: 35 g ai/ha; for pest or weed control at 70 g/ha: 70 g ai/ha; for pest or weed control at 140 g/ha: 140 g ai/ha
How it was run: as §1

[3] = Cyperus esculentus, yellow nutsedge (Cyperus esculentus), 14 days after application, read-out: Visual Growth Reduction (%) 14 Days After Application CYPES
[4] = Echinochloa crus-galli, barnyardgrass (Echinochloa crus-galli), 14 days after application, read-out: Visual Growth Reduction (%) 14 Days After Application ECHCG
[5] = Oryza sativa, rice (Oryza sativa), 14 days after application, read-out: Visual Growth Reduction (%) 14 Days After Application ORYSA
[6] = Setaria faberi, giant foxtail (Setaria faberi), 14 days after application, read-out: Visual Growth Reduction (%) 14 Days After Application SETFA
[7] = Triticum aestivum, wheat, spring (Triticum aestivum), 14 days after application, read-out: Visual Growth Reduction (%) 14 Days After Application TRZAS
[8] = Zea mays, maize, corn (Zea mays), 14 days after application, read-out: Visual Growth Reduction (%) 14 Days After Application ZEAMX
[9] = Abutilon theophrasti, velvetleaf (Abutilon theophrasti), read-out: Visual Growth Reduction (%) 14 Days After Application, ABUTH
[10] = Amaranthus retroflexus, redroot pigweed (Amaranthus retroflexus), read-out: Visual Growth Reduction (%) 14 Days After Application, AMARE
[11] = Brassica napus, oilseed rape, canola (Brassica napus), read-out: Visual Growth Reduction (%) 14 Days After Application, BRSNN
[12] = Chenopodium album, lambsquarters (Chenopodium album), read-out: Visual Growth Reduction (%) 14 Days After Application, CHEAL
[13] = Euphorbia heterophylla, wild poinsettia (Euphorbia heterophylla), read-out: Visual Growth Reduction (%) 14 Days After Application, EPHHL
[14] = Helianthus annuus, sunflower (Helianthus annuus), read-out: Visual Growth Reduction (%) 14 Days After Application, HELAN
[15] = Cyperus esculentus, yellow nutsedge (Cyperus esculentus), 14 d, read-out: Visual Growth Reduction (%) 14 Days After Application, CYPES
[16] = Echinochloa crus-galli, barnyardgrass (Echinochloa crus-galli), 14 d, read-out: Visual Growth Reduction (%) 14 Days After Application, ECHCG
[17] = Oryza sativa, rice (Oryza sativa), 14 d, read-out: Visual Growth Reduction (%) 14 Days After Application, ORYSA
[18] = Setaria faberi, giant foxtail (Setaria faberi), 14 d, read-out: Visual Growth Reduction (%) 14 Days After Application, SETFA
[19] = Triticum aestivum, wheat, spring (Triticum aestivum), 14 d, read-out: Visual Growth Reduction (%) 14 Days After Application, TRZAS
[20] = Zea mays, maize, corn (Zea mays), 14 d, read-out: Visual Growth Reduction (%) 14 Days After Application, ZEAMX

melting point: 112 °C
Structure (SMILES): COC(=O)c1nc(-c2cc3sccc3cc2F)c(F)c(N)c1Cl [Compound 3.14]
pest or weed control at 35 g/ha [1, 3]: 0 to 29%
pest or weed control at 70 g/ha [1, 3]: 0 to 29%
pest or weed control at 140 g/ha [1, 3]: 0 to 29%
pest or weed control at 35 g/ha [1, 4]: 0 to 29%
pest or weed control at 70 g/ha [1, 4]: 0 to 29%
pest or weed control at 140 g/ha [1, 4]: 0 to 29%
pest or weed control at 35 g/ha [1, 5]: 0 to 29%
pest or weed control at 70 g/ha [1, 5]: 0 to 29%
pest or weed control at 140 g/ha [1, 5]: 0 to 29%
pest or weed control at 35 g/ha [1, 6]: 0 to 29%
pest or weed control at 70 g/ha [1, 6]: 0 to 29%
pest or weed control at 140 g/ha [1, 6]: 0 to 29%
pest or weed control at 35 g/ha [1, 7]: 0 to 29%
pest or weed control at 70 g/ha [1, 7]: 0 to 29%
pest or weed control at 140 g/ha [1, 7]: 0 to 29%
pest or weed control at 35 g/ha [1, 8]: 0 to 29%
pest or weed control at 70 g/ha [1, 8]: 30 to 44%
pest or weed control at 140 g/ha [1, 8]: 60 to 74%
pest or weed control at 35 g/ha [2, 9]: 0 to 29%
pest or weed control at 70 g/ha [2, 9]: 0 to 29%
pest or weed control at 140 g/ha [2, 9]: 0 to 29%
pest or weed control at 35 g/ha [2, 10]: 85 to 94%
pest or weed control at 70 g/ha [2, 10]: 95 to 100%
pest or weed control at 140 g/ha [2, 10]: 95 to 100%
pest or weed control at 35 g/ha [2, 11]: 0 to 29%
pest or weed control at 70 g/ha [2, 11]: 0 to 29%
pest or weed control at 140 g/ha [2, 11]: 0 to 29%
pest or weed control at 35 g/ha [2, 12]: 85 to 94%
pest or weed control at 70 g/ha [2, 12]: 85 to 94%
pest or weed control at 140 g/ha [2, 12]: 95 to 100%
pest or weed control at 35 g/ha [2, 13]: 30 to 44%
pest or weed control at 70 g/ha [2, 13]: 30 to 44%
pest or weed control at 140 g/ha [2, 13]: 60 to 74%
pest or weed control at 35 g/ha [2, 14]: 85 to 94%
pest or weed control at 70 g/ha [2, 14]: 85 to 94%
pest or weed control at 140 g/ha [2, 14]: 95 to 100%

melting point: 221 to 224 °C
Structure (SMILES): COC(=O)c1nc(-c2ccc3[nH]ccc3c2)c(F)c(N)c1Cl [Compound 1.02, Methyl 4-amino-3-chloro-5-fluoro-6-(1H-indol-5-yl)picolinate]
pest or weed control at 35 g/ha [1, 15]: 0 to 29%
pest or weed control at 70 g/ha [1, 15]: 0 to 29%
pest or weed control at 140 g/ha [1, 15]: 0 to 29%
pest or weed control at 35 g/ha [1, 16]: 0 to 29%
pest or weed control at 70 g/ha [1, 16]: 0 to 29%
pest or weed control at 140 g/ha [1, 16]: 45 to 59%
pest or weed control at 35 g/ha [1, 17]: 0 to 29%
pest or weed control at 70 g/ha [1, 17]: 0 to 29%
pest or weed control at 140 g/ha [1, 17]: 0 to 29%
pest or weed control at 35 g/ha [1, 18]: 0 to 29%
pest or weed control at 70 g/ha [1, 18]: 0 to 29%
pest or weed control at 140 g/ha [1, 18]: 0 to 29%
pest or weed control at 35 g/ha [1, 19]: 0 to 29%
pest or weed control at 70 g/ha [1, 19]: 0 to 29%
pest or weed control at 140 g/ha [1, 19]: 0 to 29%
pest or weed control at 35 g/ha [1, 20]: 0 to 29%
pest or weed control at 70 g/ha [1, 20]: 0 to 29%
pest or weed control at 140 g/ha [1, 20]: 0 to 29%
pest or weed control at 35 g/ha [2, 9]: 0 to 29%
pest or weed control at 70 g/ha [2, 9]: 0 to 29%
pest or weed control at 140 g/ha [2, 9]: 0 to 29%
pest or weed control at 70 g/ha [2, 10]: 85 to 94%
pest or weed control at 140 g/ha [2, 10]: 85 to 94%
pest or weed control at 35 g/ha [2, 11]: 0 to 29%
pest or weed control at 70 g/ha [2, 11]: 0 to 29%
pest or weed control at 140 g/ha [2, 11]: 0 to 29%
pest or weed control at 35 g/ha [2, 12]: 75 to 84%
pest or weed control at 70 g/ha [2, 12]: 85 to 94%
pest or weed control at 140 g/ha [2, 12]: 95 to 100%
pest or weed control at 35 g/ha [2, 13]: 45 to 59%
pest or weed control at 70 g/ha [2, 13]: 45 to 59%
pest or weed control at 140 g/ha [2, 13]: 60 to 74%
pest or weed control at 35 g/ha [2, 14]: 45 to 59%
pest or weed control at 70 g/ha [2, 14]: 60 to 74%
pest or weed control at 140 g/ha [2, 14]: 60 to 74%
